In patent publication US8088930B2, “Benzimidazole derivatives” (Hoffmann-La Roche Inc., priority 2008, dated 2012):

Biological target: T1, FXR ligand binding domain (GST-FXR LBD fusion protein, human FXR aa 193-473) (Homo sapiens, UniProt Q96RI1)
T1 construct: fused on or other part: Glutathione-S-transferase (GST) fused N-terminally to the FXR LBD, used to capture the protein on glutathione SPA beads
T1 sequence (Q96RI1 211-486 limits assumed): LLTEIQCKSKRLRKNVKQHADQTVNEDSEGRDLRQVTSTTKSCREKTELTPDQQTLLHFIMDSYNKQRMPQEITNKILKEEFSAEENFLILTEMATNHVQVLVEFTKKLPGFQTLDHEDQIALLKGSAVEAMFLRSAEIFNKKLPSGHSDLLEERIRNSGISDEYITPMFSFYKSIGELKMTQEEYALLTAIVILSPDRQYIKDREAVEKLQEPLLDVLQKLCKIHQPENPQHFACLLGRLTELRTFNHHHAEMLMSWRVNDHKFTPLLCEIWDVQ
Assay: Radioligand binding assay (scintillation proximity, radioligand displacement)
Conditions: 40 nM GST-FXR LBD on SPA beads, test compound 6×10^−9 M to 2.5×10^−5 M, read-out: h-IC50 Binding
In short: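 40 nM GST-FXR LBD, E. coli-expressed, bound to glutathione yttrium silicate SPA beads in 50 mM Hepes pH 7.4, 10 mM NaCl, 5 mM MgCl2, 0.01% CHAPS. Test compounds displace radioligand (e.g. 20 nM benzimidazolyl-acetamide ligand); bound ligand measured by scintillation proximity counting.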

Compound	IC50 [nM]
COc1ccc(-c2nc3cc(F)c(F)cc3n2C(COc2c(F)cc(-c3nnn[nH]3)cc2F)C2CCCCC2)c(OC)n1 (centres unmarked) [Example 129, 1-{1-Cyclohexyl-2-[2,6-difluoro-4-(1H-tetrazol-5-yl)-phenoxy]-ethyl}-2-(2,6-dimethoxy-pyridin-3-yl)-5,6-difluoro-1H-benzoimidazole]	20
Cc1cc(-c2nnn[nH]2)cc(C)c1OCC(C1CCCC1)n1c(-c2ccc(Cl)cc2)nc2cc(F)c(F)cc21 (centres unmarked) [Example 135, 2-(4-Chloro-phenyl)-1-{1-cyclopentyl-2-[2,6-dimethyl-4-(1H-tetrazol-5-yl)-phenoxy]-ethyl}-5,6-difluoro-1H-benzoimidazole]	20
Cc1cc(-c2nnn[nH]2)cc(C)c1OCC(C1CC1)n1c(-c2ccc(Cl)cc2)nc2cc(F)c(F)cc21 (centres unmarked) [Example 136, 2-(4-Chloro-phenyl)-1-{1-cyclopropyl-2-[2,6-dimethyl-4-(1H-tetrazol-5-yl)-phenoxy]-ethyl}-5,6-difluoro-1H-benzoimidazole]	100
O=C(O)c1ccc(S(=O)(=O)CC(C2CCCCC2)n2c(-c3ccc(Cl)cc3)nc3cc(F)c(F)cc32)cc1 (centres unmarked) [Example 141, 4-{2-[2-(4-Chloro-phenyl)-5,6-difluoro-benzoimidazol-1-yl]-2-cyclohexyl-ethanesulfonyl}-benzoic acid]	8200
COc1ccc(-c2nc3cc(F)c(F)cc3n2C(CCc2ccc(C(=O)O)cc2)C2CCCCC2)c(OC)n1 (centres unmarked) [Example 145, 4-{3-Cyclohexyl-3-[2-(2,6-dimethoxy-pyridin-3-yl)-5,6-difluoro-benzoimidazol-1-yl]-propyl}-benzoic acid]	0.3

Now from value to molecule:

IC50 [nM]	Compound
300	O=C(O)c1ccc(OCC(C2CCCCCC2)n2c(-c3ccc(Cl)cc3)nc3cc(F)c(F)cc32)nc1 (centres unmarked) [Example 130, 6-{2-[2-(4-Chloro-phenyl)-5,6-difluoro-benzoimidazol-1-yl]-2-cycloheptyl-ethoxy}-nicotinic acid]
20	O=C(O)c1cc(F)c(OCC(C2CCCCCC2)n2c(-c3ccc(Cl)cc3)nc3cc(F)c(F)cc32)c(F)c1 (centres unmarked) [Example 131, 4-{2-[2-(4-Chloro-phenyl)-5,6-difluoro-benzoimidazol-1-yl]-2-cycloheptyl-ethoxy}-3,5-difluoro-benzoic acid]
10	Cc1cc(-c2nnn[nH]2)cc(C)c1OCC(C1CCC(F)(F)CC1)n1c(-c2ccc(Cl)cc2)nc2cc(F)c(F)cc21 (centres unmarked) [Example 134, 2-(4-Chloro-phenyl)-1-{1-(4,4-difluoro-cyclohexyl)-2-[2,6-dimethyl-4-(1H-tetrazol-5-yl)-phenoxy]-ethyl}-5,6-difluoro-1H-benzoimidazole]
3	Fc1cc2nc(-c3ccc(Cl)cc3)n(C(CNc3ccc(-c4nnn[nH]4)cc3)C3CCCCC3)c2cc1F (centres unmarked) [Example 139, {2-[2-(4-Chloro-phenyl)-5,6-difluoro-benzoimidazol-1-yl]-2-cyclohexyl-ethyl}-[4-(1H-tetrazol-5-yl)-phenyl]-amine]
70	O=C(O)c1ccc(SCC(C2CCCCC2)n2c(-c3ccc(Cl)cc3)nc3cc(F)c(F)cc32)cc1 (centres unmarked) [Example 140, 4-{2-[2-(4-Chloro-phenyl)-5,6-difluoro-benzoimidazol-1-yl]-2-cyclohexyl-ethylsulfanyl}-benzoic acid]
5	O=C(O)c1ccc(CCC(C2CCCCC2)n2c(-c3ccccc3)nc3cc(F)c(F)cc32)cc1 (centres unmarked) [Example 142, 4-[3-Cyclohexyl-3-(5,6-difluoro-2-phenyl-benzoimidazol-1-yl)-propyl]-benzoic acid]
